Where two headings read alike, the source gives them in different places.
How the values were obtained:
Drosophila OR49b = target: T1, Drosophila OR49b (Drosophila melanogaster, UniProt Q9V6H2); test: cell-based; details: for activation at 1 µM / activation at 10 µM / activation at 100 µM: HEK293; for Average response: mean of biological replicates
T1 construct: expressed in transfected cells
T1 sequence (Q9V6H2 1-375): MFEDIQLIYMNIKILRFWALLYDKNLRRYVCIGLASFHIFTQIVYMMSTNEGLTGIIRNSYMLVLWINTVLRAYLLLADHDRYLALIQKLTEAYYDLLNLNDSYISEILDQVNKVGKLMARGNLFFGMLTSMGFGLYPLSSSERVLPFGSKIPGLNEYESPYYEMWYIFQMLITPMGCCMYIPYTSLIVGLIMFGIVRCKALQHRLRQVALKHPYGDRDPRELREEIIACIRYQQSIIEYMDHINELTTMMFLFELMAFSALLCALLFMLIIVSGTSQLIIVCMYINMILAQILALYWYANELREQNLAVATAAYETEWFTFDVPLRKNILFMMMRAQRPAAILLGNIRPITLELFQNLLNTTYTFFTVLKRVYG
T1 sequence (Q9VNB5 1-486 partner): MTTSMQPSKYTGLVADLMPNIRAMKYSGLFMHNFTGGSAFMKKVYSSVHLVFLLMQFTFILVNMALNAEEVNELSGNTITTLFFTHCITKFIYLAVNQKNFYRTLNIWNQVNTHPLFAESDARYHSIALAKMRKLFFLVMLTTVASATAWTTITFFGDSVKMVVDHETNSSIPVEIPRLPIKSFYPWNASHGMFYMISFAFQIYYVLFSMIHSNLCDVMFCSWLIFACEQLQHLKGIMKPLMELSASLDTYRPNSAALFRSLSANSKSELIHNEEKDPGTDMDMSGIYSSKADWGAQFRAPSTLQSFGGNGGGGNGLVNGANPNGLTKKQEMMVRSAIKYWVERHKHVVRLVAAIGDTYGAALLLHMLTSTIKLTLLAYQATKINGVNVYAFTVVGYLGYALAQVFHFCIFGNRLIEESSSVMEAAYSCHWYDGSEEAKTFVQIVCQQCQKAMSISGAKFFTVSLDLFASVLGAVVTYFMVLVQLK
Summary of the method: (§1)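 Responses are VUAA1-normalized ΔF: each VOC-evoked calcium signal, (FMAX−F0)/F0 over 30 s after injection, divided by the same line's mean 50 µM VUAA1 response. Cells were doxycycline-induced HEK293 with GCaMP6 and the cognate Drosophila OR, in HEPES buffer pH 7.3; ligands tested 0.01–100 μM.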

Drosophila OR71a = target: T2, Drosophila OR71a (Drosophila melanogaster, UniProt Q9VUK5); test: Calcium ion fluorescence (GCaMP6) assay, OR71a stable HEK293 cell line; format: cell-based; details: for activation at 1 µM / activation at 10 µM / activation at 100 µM: HEK293, read-out: OR71a response (VUAA1-normalized response); for Average response: VUAA1-normalized response, mean of biological replicates
T2 construct: expressed in transfected cells
T2 sequence (Q9VUK5 1-378): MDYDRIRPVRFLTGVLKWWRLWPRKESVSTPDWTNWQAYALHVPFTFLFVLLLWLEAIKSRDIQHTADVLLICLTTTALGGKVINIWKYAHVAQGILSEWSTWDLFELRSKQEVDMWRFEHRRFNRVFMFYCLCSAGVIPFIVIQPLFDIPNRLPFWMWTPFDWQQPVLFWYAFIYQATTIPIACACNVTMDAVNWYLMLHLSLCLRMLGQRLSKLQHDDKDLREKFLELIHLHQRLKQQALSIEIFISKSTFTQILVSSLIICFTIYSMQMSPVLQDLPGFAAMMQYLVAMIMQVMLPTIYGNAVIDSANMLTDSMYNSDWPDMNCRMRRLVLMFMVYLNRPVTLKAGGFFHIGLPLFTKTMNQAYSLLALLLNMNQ
T2 sequence (Q9VNB5 1-486 partner): T1 sequence (Q9VNB5 1-486 partner)
Summary of the method: as §1

[1] = VOC concentration 1 μM, read-out: OR49b response (VUAA1-normalized response)
[2] = VOC concentration 10 μM, read-out: OR49b response (VUAA1-normalized response)
[3] = VOC concentration 100 μM, read-out: OR49b response (VUAA1-normalized response)
[4] = OR49b cell line, odorant cc. 1 µM
[5] = OR49b cell line, odorant cc. 10 µM
[6] = OR49b cell line, odorant cc. 100 µM
[7] = ligand concentration 1 (unit not given), threshold 0.05, below shown as 0
[8] = ligand concentration 10 (unit not given), threshold 0.05, below shown as 0
[9] = ligand concentration 100 (unit not given), threshold 0.05, below shown as 0
[10] = concentration 1, normalized fluorescence change, values below 0.05 threshold given as 0
[11] = concentration 10, normalized fluorescence change, values below 0.05 threshold given as 0
[12] = concentration 100, normalized fluorescence change, values below 0.05 threshold given as 0
[13] = ligand concentration 1 (unit not given), 0.05 threshold, values below shown as 0
[14] = ligand concentration 10 (unit not given), 0.05 threshold, values below shown as 0
[15] = ligand concentration 100 (unit not given), 0.05 threshold, values below shown as 0

| Molecule | activation at 1 µM (Drosophila OR49b; [1]) | activation at 10 µM (Drosophila OR49b; [2]) | activation at 100 µM (Drosophila OR49b; [3]) | Average response (Drosophila OR49b; [4]) | Average response (Drosophila OR49b; [5]) | Average response (Drosophila OR49b; [6]) | DF norm AVERAGE OR49b (Drosophila OR49b; [7]) | DF norm AVERAGE OR49b (Drosophila OR49b; [8]) | DF norm AVERAGE OR49b (Drosophila OR49b; [9]) | activation at 1 µM (Drosophila OR71a) | activation at 10 µM (Drosophila OR71a) | activation at 100 µM (Drosophila OR71a) | Average response (Drosophila OR71a; OR71a cell line, cc. 1 µM) | Average response (Drosophila OR71a; OR71a cell line, cc. 10 µM) | Average response (Drosophila OR71a; OR71a cell line, cc. 100 µM) | DF norm AVERAGE OR71a (Drosophila OR71a; [7]) | DF norm AVERAGE OR71a (Drosophila OR71a; [8]) | DF norm AVERAGE OR71a (Drosophila OR71a; [10]) | DF norm AVERAGE OR71a (Drosophila OR71a; [11]) | DF norm AVERAGE OR71a (Drosophila OR71a; [12]) | other results |
| --- | --- | --- | --- | --- | --- | --- | --- | --- | --- | --- | --- | --- | --- | --- | --- | --- | --- | --- | --- | --- | --- |
| C=CCc1ccc(O)c(OC)c1 [eugenol] | 0% | 0% | 0% | 0.05 | 0.00 | 0.00 | 0 | 0 | 0 | 0% | 0% | 0% | 0.00 | 0.0465 | 0.0247 | 0 | 0 | – | – | – | DF norm AVERAGE OR71a (Drosophila OR71a; [9]): 0 |
| C=C1CC[C@H]2O[C@]2(C)CC[C@@H]2[C@@H]1CC2(C)C [(-)-caryophyllene oxide] | 0% | 0% | 0% | 0.00 | 0.00 | 0.00 | – | – | – | 0% | 0% | 7.44% | 0.00 | 0.00 | 0.0744 | – | – | 0 | 0 | 0.07441 | DF norm AVERAGE OR49b (Drosophila OR49b): 0 |
| CCCCCCCCC=O [nonanal] | – | – | – | 0.00 | 0.00 | 0.00 | 0 | 0 | 0 | – | – | – | 0.00 | 0.00 | 0.00 | 0 | 0 | – | – | – | OR49b response (VUAA1-normalized) at 1 μM (Drosophila OR49b; OR49b cell line, VOC concentration 1 μM): 0.00; OR49b response (VUAA1-normalized) at 10 μM (Drosophila OR49b; OR49b cell line, VOC concentration 10 μM): 0.00; OR49b response (VUAA1-normalized) at 100 μM (Drosophila OR49b; OR49b cell line, VOC concentration 100 μM): 0.00; OR71a response (VUAA1-normalized) at 1 μM (Drosophila OR71a; OR71a cell line, VOC concentration 1 μM): 0.00; OR71a response (VUAA1-normalized) at 10 μM (Drosophila OR71a; OR71a cell line, VOC concentration 10 μM): 0.00; OR71a response (VUAA1-normalized) at 100 μM (Drosophila OR71a; OR71a cell line, VOC concentration 100 μM): 0.00; DF norm AVERAGE OR71a (Drosophila OR71a; [9]): 0 |
| CCCC(=O)OCC [ethyl butyrate] | 0% | 0% | 0% | 0.00 | 0.00 | 0.00 | 0 | 0 | 0 | 0% | 0% | 0% | 0.00 | 0.00 | 0.00 | 0 | 0 | – | – | – | DF norm AVERAGE OR71a (Drosophila OR71a; [9]): 0 |
| CC/C=C\CCOC(C)=O [z3-hexenyl acetate] | – | – | – | 0.0379 | 0.0171 | 0.04 | – | – | – | – | – | – | 0.00 | 0.00 | 0.00 | – | – | – | – | – | DF norm AVERAGE OR49b (Drosophila OR49b; [13]): 0; DF norm AVERAGE OR49b (Drosophila OR49b; [14]): 0; DF norm AVERAGE OR49b (Drosophila OR49b; [15]): 0; DF norm AVERAGE OR71a (Drosophila OR71a; [13]): 0; DF norm AVERAGE OR71a (Drosophila OR71a; [14]): 0; DF norm AVERAGE OR71a (Drosophila OR71a; [15]): 0 |
| (+)-beta-cedrene | – | – | – | 0.00 | 0.0336 | 0.00 | – | – | – | – | – | – | 0.0243 | 0.03 | 0.00 | – | – | 0 | 0 | 0 | DF norm AVERAGE OR49b (Drosophila OR49b): 0; OR49b response (VUAA1-normalized response) (Drosophila OR49b; VOC concentration 1 μM): 0.00; OR49b response (VUAA1-normalized response) (Drosophila OR49b; VOC concentration 10 μM): 0.00; OR49b response (VUAA1-normalized response) (Drosophila OR49b; VOC concentration 100 μM): 0.00; OR71a response (VUAA1-normalized response) (Drosophila OR71a; VOC concentration 1 μM): 0.00; OR71a response (VUAA1-normalized response) (Drosophila OR71a; VOC concentration 10 μM): 0.00; OR71a response (VUAA1-normalized response) (Drosophila OR71a; VOC concentration 100 μM): 0.00 |
| C=C(C)[C@H]1CC=C(C)CC1 [(R)-(+)-limonene] | – | – | – | 0.00 | 0.00 | 0.0168 | – | – | – | – | – | – | 0.0368 | 0.00 | 0.00 | – | – | 0 | 0 | 0 | DF norm AVERAGE OR49b (Drosophila OR49b): 0; OR49b response (VUAA1-normalized response) (Drosophila OR49b; VOC concentration 1 μM): 0.00; OR49b response (VUAA1-normalized response) (Drosophila OR49b; VOC concentration 10 μM): 0.00; OR49b response (VUAA1-normalized response) (Drosophila OR49b; VOC concentration 100 μM): 0.00; OR71a response (VUAA1-normalized response) (Drosophila OR71a; VOC concentration 1 μM): 0.00; OR71a response (VUAA1-normalized response) (Drosophila OR71a; VOC concentration 10 μM): 0.00; OR71a response (VUAA1-normalized response) (Drosophila OR71a; VOC concentration 100 μM): 0.00 |
| Cc1cccc(O)c1 [3-methylphenol] | 0% | 13% | 43% | 0.00 | 0.13 | 0.43 | – | – | – | 0% | 0% | 0% | 0.03 | 0.0152 | 0.0133 | – | – | 0 | 0 | 0 | activation at 1 µM (Drosophila OR49b; 1 μM VOC, 50 μM VUAA1 = 1, read-out: OR49b Average response (VUAA1-normalized)): 0%; activation at 10 µM (Drosophila OR49b; 10 μM VOC, 50 μM VUAA1 = 1, read-out: OR49b Average response (VUAA1-normalized)): 13%; activation at 100 µM (Drosophila OR49b; 100 μM VOC, 50 μM VUAA1 = 1, read-out: OR49b Average response (VUAA1-normalized)): 43% |
| C=C1CC/C=C(\C)CC[C@@H]2[C@@H]1CC2(C)C [(-)-trans-caryophyllene] | 0% | 0% | 0% | 0.00 | 0.00 | 0.00 | – | – | – | 0% | 0% | 0% | 0.0273 | 0.00 | 0.00 | – | – | 0 | 0 | 0 | DF norm AVERAGE OR49b (Drosophila OR49b): 0 |
| CCCCOC(=O)CC [butyl propanoate] | 0% | 0% | 0% | 0.00 | 0.00 | 0.00 | 0 | 0 | 0 | 0% | 0% | 0% | 0.00 | 0.00 | 0.03 | 0 | 0 | – | – | – | DF norm AVERAGE OR71a (Drosophila OR71a; [9]): 0 |

Source: article PMC10709440, “High-throughput ligand profile characterization in novel cell lines expressing seven heterologous insect olfactory receptors for the detection of volatile plant biomarkers” (Scientific Reports, 2023)
